Among the data in ChEMBL document CHEMBL3045040, “Synthesis and antiproliferative activity of 1-[(sub)]-6-fluoro-3-[(sub)]-1, 3,4-oxadiazol-2-yl-7-piperazino-1, 4-dihydro-4-quinolinone derivatives” (Med Chem Res, 2007) are IC50 values, retold here.

The subject of this assay is A549. Description: Cytotoxicity against Homo sapiens (human) A549 cells assessed as cell viability by MTT assay. It is filed as functional, cell-based.

Values after ≈ are worked out from the molar mass of the structure shown.

Take `O=c1c(-c2nnc(-c3ccccc3)o2)cn(C2CC2)c2cc(N3CCNCC3)c(F)cc12`: the half-maximal inhibitory concentration (IC50) was 46 µg/mL (≈ 107 µM).
Next, `O=c1c(-c2nnc(-c3ccc([N+](=O)[O-])cc3)o2)cn(C2CC2)c2cc(N3CCNCC3)c(F)cc12`: 8 µg/mL (≈ 16.8 µM); `O=c1c(-c2nnc(-c3ccc(Nc4ccccc4)cc3)o2)cn(C2CC2)c2cc(N3CCNCC3)c(F)cc12`: 52 µg/mL (≈ 99.5 µM).
For the compound `O=c1c(-c2nnc(COc3ccc4ccccc4c3)o2)cn(C2CC2)c2cc(N3CCNCC3)c(F)cc12`, the IC50 is 16 µg/mL (≈ 31.3 µM).
To `O=c1c(-c2nnc(COc3cccc4ccccc34)o2)cn(C2CC2)c2cc(N3CCNCC3)c(F)cc12` belongs 96.2 µg/mL (≈ 188 µM); to `O=c1c(-c2nnc(Cc3ccccc3)o2)cn(C2CC2)c2cc(N3CCNCC3)c(F)cc12`, 86 µg/mL (≈ 193 µM).
Next, `O=c1c(-c2nnc(COc3ccccc3)o2)cn(C2CC2)c2cc(N3CCNCC3)c(F)cc12`: 48.6 µg/mL (≈ 105 µM); `CCn1cc(-c2nnc(-c3ccccc3)o2)c(=O)c2cc(F)c(N3CCNCC3)cc21`: 112 µg/mL (≈ 267 µM); `CCn1cc(-c2nnc(-c3ccc([N+](=O)[O-])cc3)o2)c(=O)c2cc(F)c(N3CCNCC3)cc21`: 74.3 µg/mL (≈ 160 µM).
Consider `CCn1cc(-c2nnc(-c3ccc(Nc4ccccc4)cc3)o2)c(=O)c2cc(F)c(N3CCNCC3)cc21`, for which the IC50 stood at 88.6 µg/mL (≈ 174 µM).
To `CCn1cc(-c2nnc(COc3ccc4ccccc4c3)o2)c(=O)c2cc(F)c(N3CCNCC3)cc21` belongs 80.2 µg/mL (≈ 161 µM); to `CCn1cc(-c2nnc(COc3cccc4ccccc34)o2)c(=O)c2cc(F)c(N3CCNCC3)cc21`, 127 µg/mL (≈ 254 µM); to `CCn1cc(-c2nnc(Cc3ccccc3)o2)c(=O)c2cc(F)c(N3CCNCC3)cc21`, 118 µg/mL (≈ 273 µM).
To `CCn1cc(-c2nnc(COc3ccccc3)o2)c(=O)c2cc(F)c(N3CCNCC3)cc21` belongs 76.8 µg/mL (≈ 171 µM); to `CN(C)/N=N/c1[nH]cnc1C(N)=O` [DACARBAZINE], 35 µg/mL (≈ 192 µM).
